# Measured values from patent US9181309B1, “Peptide regulation of maize defense responses” (The United States of America, as represented by the …, priority 2011, dated 2015).
# How the values were obtained:
# [1] = test system: defense-related genes in excised maize leaves; assay: Excised leaf bioassay, semi-quantitative RT-PCR of defense marker genes; assay type: in vivo, Zea mays
# Experimental: Over a 16.5 hour time-course, excised maize leaves were supplied with either a solution of ZmPEP3 peptide or with a water control. Based on the average volume of ZmPEP3 solution taken up by the maize leaves, each leaf was exposed to around 1.8 nMols of peptide per gram of leaf material over the time course study. Zero hour treatments indicate leaves that were immediately harvested at the beginning of the study; the other time points refer to hours elapsed after leaves were excised and placed into solution. As a control to observe herbivory-induced expression of these genes, a timecourse of exposure to herbivory by Spodoptera frugiperda (fall armyworm, FAW) was performed for comparison. As described in the Material and Methods, when using the semi-quantitative RT-PCR analysis technique, observed band intensity is indicative of initial transcript abundance in a sample, thus bands of greater intensity represent sample with enriched transcript abundance.
# Maize tissues that had been harvested and frozen in liquid nitrogen were ground to a fine powder using a porcelain mortar and pestle. Approximately 100 mg of frozen powdered plant material was transferred to a 2 mL microcentrifuge tubes to which 1 mL of Trizol reagent (Invitrogen, Carlsbad Calif.) was added. RNA isolation was performed as per the Trizol instructions, supplemented by an acid:phenol:chloroform partitioning step to minimize contaminating DNA. RNA was solublized in 50 μL diethylpyrocarbonate (DEPC)-treated water. RNA yield was quantified by measuring the A260, and the samples were stored at −20° C.
# RNA was reverse transcribed using all components from the RETROscript kit (Ambion, Austin Tex.). The 20 μL reverse transcription reactions were assembled as per kit instructions The reverse transcription reaction was allowed to proceed for one hour at 44° C., followed by a ten minute incubation at 92° C.
# Semi-quantitative RT-PCR reactions were assembled as follows: 1.2 μL of the cDNA generated in the reverse transcription reactions was used as template for 25 μL PCR reactions. Each reaction contained Platinum 10×PCR buffer (Invitrogen, Carlsbad Calif.) and the final concentration of Mg^2+ and dNTPs were 1.5 mM and 200 μM, respectively. Platinum Taq polymerase (Invitrogen, Carlsbad Calif.) was added at 0.5 units per reaction, while primers were used at 0.4 μM each. All primers were designed to for an annealing temperature of 56° C., to amplify a product of 250 to 350 base pairs and to span introns when possible. The ZmActin1 gene transcript (GenBank# J01238) has been described in the literature as an effective housekeeping control transcript for the study of maize defense gene expression (Erb et al., 2009), and was therefore used to permit comparisons of relative transcript abundance from sample to sample. Genes to be analyzed for responsiveness to ZmPep3 were all shown in previous work to be associated with either pathogen or herbivore resistance (Erb et al., Plant J 59: 292, 2009; Doehlemann et al., Plant J. 56:181, 2008; Köliner et al., Plant Cell 20: 482, 2008; Chen et al., Phytopathology 94:938, 2004; Chen et al., Phytopathology 97:1094, 2007; Schnee et al., Plant Physiol 130: 2049, 2002; Frey et al., Proc Natl Acad Sci USA. 97:14801, 2000).
# [2] = test system: volatile emission from maize leaves; assay: Volatile collection and GC analysis of emitted volatiles from excised maize leaves; assay type: in vivo, Zea mays
# Experimental: Volatiles were collected by a previously described method (Schmelz et al., Planta. 214:171, 2001). Briefly, excised leaves were placed in glass cylinders (Analytical Research Systems, Gainesville, Fla., USA) and maintained under their original lighting conditions. Clean, humidified air was passed through the cylinders (550 ml/min) and the leaf-emitted volatiles were trapped on 50 mg Super Q (80/100 mesh; Alltech, Deerfield, Ill., USA) for 30 minutes. Super Q traps were eluted with 150 μl methylene chloride with 400 ng of nonyl acetate added as an internal standard. At least three leaf replicates were used for each treatment. Volatiles were analyzed by gas chromatography-mass spectrometry (GC-MS) using an Agilent (Agilent Technologies, Inc., Santa Clara, Calif.) 7890A gas chromatograph (carrier gas; He at 1.2 ml min^−1; splitless injector, temperature 220° C., injection volume 1 μl) with an DB-1MS column (100% Dimethylpolysiloxane; 15 m long, 250 μm i.d., 0.1 μm film thickness). Temperatures were programmed from 40° C. (0.5 min hold) at 12° C. min^−1 to 180° C. then 220° C. (2.0 min hold for the post run). Signals were captured with a flame ionization detector (250° C.). The GC was coupled to an HP 5973 quadrupole-type mass selective detector with transfer line, source, and quadrupole temperatures of 230° C., 230° C. and 150° C., respectively. […] Volatile compounds were identified by comparison of retention times with authentic standards and by comparison of mass spectra with Wiley and NIST libraries.
# S. exigua = assay: Larval growth on peptide-pretreated leaves; assay type: in vivo, Spodoptera exigua; settings: compared to untreated or water-treated leaves
# Experimental: To assess the role of ZmPep3-induced direct defenses, S. exigua growth on peptide-pretreated leaves was evaluated. […] This effect was expected given the potency of ZmPep3-induced proteins and benzoxazinoids against herbivores.
# [3] = test system: herbivore defense genes in maize leaves; assay: Real time qPCR / qRT-PCR of defense and phytohormone biosynthesis genes in treated leaves
# [4] = later time points, vs water-supplied leaves
# [5] = equivalent molar concentrations
# [6] = low equivalent quantities of elicitor
# [7] = real-time quantification, peptide-treated leaves
substance,measurement,setting,value
ZmPEP3: 23 amino acid maize plant elicitor peptide TRTPPWPPCPPEEGSGGNGGSHN (SEQ ID NO: 3) (Zea mays),number of defense-related genes identified as ZmPEP3-responsive,[1]; excised leaf assays,twenty
same,time at which AOS transcript increases in abundance,"[1]; excised leaves, around 1.8 nMols of peptide per gram of leaf",2 h
same,endochitinase A transcript levels,"[1]; excised leaves, around 1.8 nMols of peptide per gram of leaf, early time points, vs water",increased transcript levels at all early time points
same,IGL expression,[1]; later time points,strongly induced
same,AOS transcript levels,[1]; [4],markedly increased
same,TPS23 transcript abundance,[1]; [4],increased greatly
same,peroxidase transcript accumulation,"[1]; later timepoints, not detectable in water-supplied leaves",marked induction of transcript accumulation
same,increase in total defense volatile emission compared to water-supplied leaves,[2]; 1.8 nMol peptide per gram of leaf material,91%
same,volatile profile vs water-supplied leaves,"[2]; 18 or 180 fMols of peptide per gram of leaf, 30 minutes collection",almost the same as leaves supplied with water
same,lowest concentration with significant increases in defense volatile emission,[2]; 30 minutes collection,1.8 pMol ZmPEP3 peptide per gram of leaf material
same,profile of volatile compounds emitted in thirty minutes,"[2]; GC, vs water-supplied leaves",Many molecules are detected
same,"difference in terpenes emitted, ZmPep3 versus Gln-18:3",[2]; [5],no significant quantitative difference
same,indole emission relative to damage alone,[2]; in vivo,increased above damage alone
same,spectrum of elicited volatile components compared with S. exigua herbivory,[2]; in vivo,same spectrum of volatile components
same,increase in DMNT emission over water-treated leaves,[2]; six hour period,6 fold
same,increase in alpha-bergamotene emission over water-treated leaves,[2]; six hour period,over a thousand fold
same,increase in beta-caryophyllene emission over water-treated leaves,[2]; six hour period,over 100 fold
same,increase in beta-farnesene emission over water-treated leaves,[2]; six hour period,over 900 fold
same,increase in indole emission over water-treated leaves,[2]; six hour period,over 100 fold
same,increase in nerolidol emission over water-treated leaves,[2]; six hour period,360 fold
same,less biomass gain of second instar larvae,S. exigua,40%
same,BX1 and BX2 expression by qRT-PCR,[3]; 12 h post-treatment,expressed
same,"TPS10 and TPS23 gene expression, ZmPep3 versus Gln-18:3",[3]; [5],more strongly induced
same,expression of genes encoding Terpene Synthases (TPS) 10 and 23,[3]; [5],strongly activate expression
same,SerPIN and WIP1 expression by qRT-PCR,[3]; in vivo,highly expressed
same,expression of AAMT1 and IGL genes,[3]; in vivo,induced
same,"ACC Oxidase and AOC transcript, ZmPep3-treated compared to Gln-18:3-treated leaves",[3]; [6],greater quantities of transcript
same,"accumulation of transcripts for ACC Oxidase, Allene Oxide Synthase and Allene Oxide Cyclase",[3]; [6],significantly increased accumulation of transcripts
same,upregulation of genes encoding proteinase inhibitor proteins,[3]; [7],more than a thousand-fold
same,upregulation of genes encoding terpene synthases,[3]; [7],more than a thousand-fold
